# Assay results from patent publication US20230241257A1, “BIOTIN-MODIFIED DIMER AND USE THEREOF” (THE UNIVERSITY OF TOKYO, priority 2020, published 2023).
# How the values were obtained:
# [1] = test system: human stomach cancer cells (MKN-45); assay: Experiment 4: pharmacokinetics of ^211At-psyche-B in the absence of Cupid-scFv antibody in MKN-45 cancer-bearing mouse models; assay type: in vivo, mice (BALB/cSlc nu/nu); details: no Cupid-scFv antibody
# Method: The present experiment used human stomach cancer cells (MKN-45) expressing carcinoembryonic antigen (CEA). 9-week-old male immunodeficient mice (BALB/cSlc nu/nu) were used. MKN-45 cells (1×10^7/0.1 ml) were transplanted into the mice's subcutis on the right shoulder dorsal side to produce cancer-bearing mouse models. The mice were divided into four groups when the tumor volume became a predetermined size (on Day 14 after the transplantation), and ^211At-psyche-B (about 0.25 MBq/[…]) was administered via the caudal vein of each mouse. One minute, 1 hour, 6 hours, and 24 hours after administration of the ^211At-psyche-B, the mice were euthanized by collecting whole blood from the heart of each mouse under isoflurane anesthesia, and tumor tissues and normal tissues/organs were then excised. Normal tissues/organs: skin (lower right limb), muscle (right gastrocnemius), heart, lung, spleen, pancreas, white fat (upper portion of right side testis), testis (both sides), stomach, stomach contents, small intestine (including contents), large intestine (including contents), liver, brown fat (interscapular), submandibular gland, thyroid gland (together with trachea), bone (right femur), brain, eyeball, bladder, and urine; the remaining residues were divided into three equal parts, and the three equal parts were defined to be residue-1, residue-2, and residue-3. After that, the weights of blood, plasma, urine, tumor, and normal tissues/organs were measured, and the radioactivity thereof was then measured using a γ counter. The amounts of the ^211At-psyche-B (radioactivity) accumulated in the blood, plasma, urine, tumor, and normal tissues/organs were calculated. That is to say, the rates (% ID/g) of the ^211At-psyche-B accumulated per unit weight (g) of the blood, plasma, urine, tumor, and normal tissues/organs, in the administered ^211At-psyche-B, were shown. Regarding accumulation of the ^211At-psyche-B in the thyroid gland, since the weight of the thyroid gland could not be precisely measured, it was shown that the rate (% ID) of the ^211At-psyche-B accumulated in the thyroid gland in the administered ^211At-psyche-B.
# [2] = test system: human stomach cancer cells (MKN-45); assay: Experiment 10: therapeutic effects and toxicity of Cupid-scFv antibody (24 h before)+^211At-psyche-B in MKN-45 cancer-bearing mouse models; assay type: in vivo, mice (BALB/cSlc nu/nu)
# Method: The present experiment used human stomach cancer cells (MKN-45) expressing carcinoembryonic antigen (CEA). 9-week-old male immunodeficient mice (BALB/cSlc nu/nu) were used. MKN-45 cells (5×10^6/0.1 ml) were transplanted into the mice's subcutis on the right shoulder dorsal side to produce cancer-bearing mouse models. At the time point in which the tumor volume became a predetermined size (on Day 8 after the transplantation), the mice were divided into six groups, which were for use in the evaluation of the therapeutic effects, and a biodistribution group (6 hours) of cancer-bearing mouse models having this tumor size. The Cupid-scFv antibody was administered 100 μmol/0.1 ml via the caudal vein of each mouse. Twenty-four hours after administration of the Cupid-scFv antibody, ^211At-psyche-B was administered via the caudal vein of each mouse in an amount of 3.70 MBq, 1.85 MBq, 1.11 MBq, or 0.37 MBq.
# In the present experiment, a 5.55 MBq administration group was not established. To a control group, a solvent for the ^211At-psyche-B was administered (solvent group). A group to which only cupid was administered was defined as a Cupid group. The mice's general states were observed and recorded immediately after administration of the ^211At-psyche-B and at 3 hours after the administration. Moreover, until Day 14, after administration of the ^211At-psyche-B, observation of the general states and the measurement of the body weight was carried out every day. After Day 14 of the administration of the […], observation of the general states and the measurement of the body weight was carried out every other day. The tumor size was measured every other day after the treatment with the ^211At-psyche-B. On Day 36, after the treatment with the ^211At-psyche-B, observation of the general states, the measurement of the body weight, and the measurement of the tumor size were carried out, and the mice were then euthanized by collecting whole blood from the heart of each mouse under isoflurane anesthesia. Tumor tissues and major tissues/organs were excised from the mice, weighed, and immobilized with formalin.
smiles,measurement,setting,value
N=C1N[C@H]2[C@H](CS[C@H]2CCCCC(=O)NCCCCCC(=O)Nc2cc(NC(=O)CCCCCNC(=O)CCCC[C@@H]3SC[C@@H]4NC(=N)N[C@@H]43)cc(C(=O)NCCOCCOCCNC(=O)c3cccc([211At])c3)c2)N1 [^211At-psyche-B],Accumulation in the blood,[1]; after 1 minute,10.4±1.1 % ID/g
same,Accumulation in the kidney,[1]; after 1 minute,61.4±6.5 % ID/g
same,Accumulation in the liver,[1]; after 1 minute,49.1±6.2 % ID/g
same,Accumulation in the tumor,[1]; after 1 minute,0.3±0.05 % ID/g
same,Accumulation in the blood,[1]; after 1 hour,3.8±0.3 % ID/g
same,Accumulation in the kidney,[1]; after 1 hour,57.2±3.1 % ID/g
same,Accumulation in the liver,[1]; after 1 hour,35.3±3.3 % ID/g
same,Accumulation in the tumor,[1]; after 1 hour,1.0±0.1 % ID/g
same,Accumulation in the blood,[1]; after 6 hours,0.4±0.1 % ID/g
same,Accumulation in the kidney,[1]; after 6 hours,17.7±1.9 % ID/g
same,Accumulation in the liver,[1]; after 6 hours,16.8±0.7 % ID/g
same,Accumulation in the thyroid gland,[1]; after 6 hours,0.16±0.06 % ID
same,Accumulation in the tumor,[1]; after 6 hours,1.0±0.1 % ID/g
same,Accumulation in the blood,[1]; after 24 hours,0.2±0.04 % ID/g
same,Accumulation in the kidney,[1]; after 24 hours,5.1±0.9%
same,Accumulation in the liver,[1]; after 24 hours,9.0±1.4%
same,Accumulation in the tumor,[1]; after 24 hours,0.3±0.02%
same,body weight reduction,"[2]; 0.37 MBq, before Day 10",body weight reduction was lower than that in the 1.11 MBq
same,body weight reduction,"[2]; 0.37 MBq, on and after Day 10",the body weight reduction was the same as in the 1.11 MBq
same,tumor growth compared with the control group,"[2]; 0.37 MBq, until Day 10",tumor growth was suppressed
same,body weight recovery,"[2]; 1.11 MBq, after Day 5",the body weight was not recovered to the same level as the control groups
same,body weight,"[2]; 1.11 MBq, until Day 5",the body weight was slightly reduced
same,tumor growth compared with the control group,"[2]; 1.11 MBq, until Day 10",tumor growth was suppressed
same,tumor growth compared with the control group,"[2]; 1.85, 1.11 and 0.37 MBq, after Day 10",the tumor growth was suppressed in an amount-dependent manner
same,general states and body weight,"[2]; 1.85 MBq, Day 5",general states and body weight reduction became significantly severe
same,mortality,"[2]; 1.85 MBq, Day 10",one mouse died
same,recovery of general states,"[2]; 1.85 MBq, Day 26",the mice were completely recovered
same,skin findings,"[2]; 1.85 MBq, on and after Day 6 until Day 12",red spots were dispersed on the skin
same,tumor growth compared with the control group,"[2]; 1.85 MBq, until Day 10",tumor growth was suppressed
same,general states and body weight,"[2]; 3.70 MBq, Day 5, urgent euthanasia",general states and body weight reduction became severe
